The numbers were not newly measured in patent US20240229143A1, “FORMULATION OF PEPTIDE IMMUNOTHERAPIES” (priority 2020, published 2024), which cites them from elsewhere.

One may read the Log P as the decadic logarithm of the partition coefficient of the neutral form, usually between octanol and water.

The conditions of series [1]: single amino acid.
The conditions of series [2]: single amino acid. The source holds these as a separate data set.
For series [3] the following is noted: single amino acid; octanol:water.

On to `N[C@@H](CO)C(=O)O` [Serine (Ser)], for which the pl in series [1] is given as 5.68.
Consider `N=C(N)NCCC[C@H](N)C(=O)O` [Arginine (Arg)], for which the “Log D7.4” value in series [2] was −1.65. Also, the pl in series [1] is 10.76.
For `C[C@H](N)C(=O)O` [Alanine (Ala)], the “Log D7.4” value in series [2] is on record as −0.27. For the same compound, in series [1], the pl was 6.00. For the same compound, the log partition coefficient (Log P) in series [3] is reported as −2.89.
Regarding `N[C@@H](Cc1c[nH]c2ccccc12)C(=O)O` [Tryptophan (Trp)], the “Log D7.4” value in series [2] is reported as 1.46. In addition, the pl in series [1] is reported as 5.89. The log partition coefficient (Log P) in series [3] was −1.75.
Regarding `NCC(=O)O` [Glycine (Gly)], the “Log D7.4” value in series [2] is recorded as −0.22. The pl in series [1] was 5.97. For the same compound, in series [3], the lipophilicity (Log P) is listed as −3.25.
For the compound `N[C@@H](Cc1ccccc1)C(=O)O` [Phenylalanine (Phe)], the “Log D7.4” value in series [2] was 1.16. Also, the pl in series [1] is given as 5.48. Further, the “Log P” value in series [3] is on record as −1.63.
Turning to `CC(C)[C@H](N)C(=O)O` [Valine (Val)], the “Log D7.4” value in series [2] was 0.32. The pl in series [1] was 5.96. For the same compound, the “Log P” value in series [3] is reported as −2.08.
Regarding `N[C@@H](CS)C(=O)O` [Cysteine (Cys)], the pl in series [1] is reported as 5.07.
In the case of `CSCC[C@H](N)C(=O)O` [Methionine (Met)], the “Log D7.4” value in series [2] was 0.51. In series [1], the pl is recorded as 5.74. Moreover, the lipophilicity (Log P) in series [3] was −1.84.
As to `NC(=O)C[C@H](N)C(=O)O` [Asparagine (Asn)], the “Log D7.4” value in series [2] was −0.98. Besides, the pl in series [1] is 5.41. Also, the “Log P” value in series [3] was −3.41.
With `NC(=O)CC[C@H](N)C(=O)O` [Glutamine (Gln)], the log partition coefficient (Log P) in series [3] was −3.24.
Turning to `CC(C)C[C@H](N)C(=O)O` [Leucine (Leu)], the “Log P” value in series [3] is on record as −1.61.
With `C[C@@H](O)[C@H](N)C(=O)O` [Threonine (Thr)], the “Log D7.4” value in series [2] is reported as −0.26. In addition, the pl in series [1] is reported as 5.60. Besides, the “Log P” value in series [3] is given as −2.92.
Turning to `NCCCC[C@H](N)C(=O)O` [Lysine (Lys)], in series [2], the “Log D7.4” value is listed as −2.27. In series [1], the pl was 9.74. The lipophilicity (Log P) in series [3] is reported as −4.44.
For the compound `O=C(O)[C@@H]1CCCN1` [Proline (Pro)], the “Log D7.4” value in series [2] is reported as 0.15. Moreover, in series [1], the pl is 6.30. Besides, in series [3], the lipophilicity (Log P) is given as −2.50.
As to `N[C@@H](CCC(=O)O)C(=O)O` [Glutamic Acid (Glu)], in series [2], the “Log D7.4” value is on record as −2.19. For the same compound, the pl in series [1] is 3.22. Moreover, in series [3], the “Log P” value is −2.94.
As to `N[C@@H](Cc1c[nH]cn1)C(=O)O` [Histidine (His)], the “Log D7.4” value in series [2] was −0.44. Also, in series [1], the pl is reported as 7.59. Besides, the “Log P” value in series [3] is −3.56.
Regarding `CC[C@H](C)[C@H](N)C(=O)O` [Isoleucine (Ile)], the “Log D7.4” value in series [2] is 0.69. Further, the pl in series [1] is 6.20. Further, the lipophilicity (Log P) in series [3] is −1.72.
`N[C@@H](Cc1ccc(O)cc1)C(=O)O` [Tyrosine (Tyr)]: the pl in series [1] is reported as 5.66.
`N[C@@H](CC(=O)O)C(=O)O` [Asparic Acid (Asp)]: the “Log D7.4” value in series [2] is given as −2.06. Also, the pl in series [1] is listed as 2.77. In series [3], the “Log P” value is on record as −3.38.
